US12186740B2, “Kits comprising containers with at least one solid catalytically active compound, and their uses in solid state reaction” (RD&C Research, Development & Consulting GmbH, priority 2018, dated 2025)
Like-named read-outs stand apart in the source and are kept apart here.

What was measured:
[1] = acidic stressor at 40° C./75% relative humidity for 3 months; cited from earlier work
[2] = after 60 minutes process time
[3] = KMnO4 on aluminium oxide, dry; process times 60 to 300 minutes
[4] = 90 min, no additives
Description: As documented in literature clopidogrel bisulphate exists in one amorphous and two polymorphic forms, polymorph II was used for the experiments described. To elucidate the stability and detect changes of the polymorphic form after energy input a simple experimental set-up with the API and no further additives was executed and the polymorphic form was analysed by WAXS (wide-angel X-ray scattering) and DSC (differential scanning calorimetry).
These experiments could be used to evaluate the stability of various polymorphic forms in general, but could also indicate the stability/instability during industrial processing and manufacturing.

[5] = Proof of concept: solid phase oxidation in a ball mill with a solid catalyst; assay type: physicochemical
Description: The first experiment was focused on a simple, well characterized API and other molecules with low structural complexity but with representative functional groups. They were systematically combined with a selection of potentially suitable catalysts. The solid phase reactions were initiated by ball milling for energy transfer in a controlled environment. In a first experimental set-up the oxidation in solid phase systems was analysed including a systematic evaluation of various catalysts, carrier matrices and reaction conditions.
The following analytical methods were implemented. Two solid phase oxidation reactions were prepared. The catalyst used was KMnO4 on silica and the active reaction container was a ball mill.

SMILES | acidic degradation product (RT 15 min) [1] | quantity of degradation, solid phase conditions vs conventional forced degradation conditions ([2]; based on AUCs in the HPLC method) | acidic degradation product (RT 15 min) ([2]; solid phase set-up, acidic solid phase catalyst) | follow-up or second line degradation products [3] | oxidative degradation products formed [3] | time-dependency of the degradation reaction [3] | polymorphic form after milling (DSC profile) ([4]; milling 10 Hz) | polymorphic form after milling (DSC profile) ([4]; milling 25 Hz) | oxidation product(s) formed ([5]; KMnO4 on silica, ball mill) | oxidation product(s) formed ([5]; on aluminium oxide)
COC(=O)[C@H](c1ccccc1Cl)N1CCc2sccc2C1 [clopidogrel bisulphate] | detected | comparable amount | could also be detected | no follow-up or second line degradation products occurred | two oxidative solid phase degradation products | clear time-dependency | minor changes and higher stability | change of the polymorphic form II to the amorphous state |  | 
c1ccc(Sc2ccccc2)cc1 [diphenylsulfide] |  |  |  |  |  |  |  |  | diphenylsulfoxide and diphenylsulfone | solely the higher oxidation state product diphenyl sulfone, but no diphenylsulfoxide
